Experimental data published in ChEMBL document CHEMBL1138817, “Synthesis and cytotoxic activity of 3-O-acyl/3-hydrazine /2-bromo/20,29-dibromo betulinic acid derivatives” (2004).
In brackets after ≈: the same amount, converted by molar mass.

How the values were obtained:
Type in all cases: functional
Jurkat = assay: Cytotoxic activity against human JurkatE6.1 cell line was measured after 72 h using MTT assay; conditions: Homo sapiens, Jurkat, 72 h; read-out: ED50 (the source's name)
A549 = assay: Cytotoxic activity against human A549 cell line was measured after 72 hr using MTT assay; conditions: A549, 72 h, read-out: ED50 (the source's name)
L132 = assay: Cytotoxic activity against human L132 cell line was measured after 72 hr using MTT assay; conditions: L132, 72 h, read-out: ED50 (the source's name)
PA-1 = assay: Cytotoxic activity against human PA-1 cell line was measured after 72 hr using MTT assay; conditions: Homo sapiens, PA-1, 72 h; read-out: ED50 (the source's name)
DU-145 = assay: Cytotoxic activity against human DU145 cell line was measured after 72 hr using MTT assay; conditions: Homo sapiens, DU-145, 72 h; read-out: ED50 (the source's name)
MOLT-4 = assay: Cytotoxic activity against human MOLT-4 cell line was measured after 72 hr using MTT assay; conditions: Homo sapiens, MOLT-4, 72 h; read-out: ED50 (the source's name)
CCRF-CEM = assay: Cytotoxic activity against human CEM.CM3 cell line was measured after 72 hr using MTT assay; conditions: Homo sapiens, CCRF-CEM, 72 h; read-out: ED50 (the source's name)
BRISTOL8 = assay: Cytotoxic activity against human BRISTOL8 cell line was measured after 72 hr using MTT assay; conditions: Homo sapiens, BRISTOL8, 72 h; read-out: ED50 (the source's name)
U-937 = assay: Cytotoxic activity against human U937 cell line was measured after 72 hr using MTT assay; conditions: Homo sapiens, U-937, 72 h; read-out: ED50 (the source's name)

With `C=C(C)[C@@H]1CC[C@]2(C(=O)O)CC[C@]3(C)C(CCC4[C@@]5(C)CC/C(=N\Nc6ccccc6)C(C)(C)C5CC[C@]43C)C12` (some centres undefined) the EC50 (Jurkat) was 2.6 µg/mL (≈ 4.77 µM), the EC50 (A549) was greater than 10 µg/mL and the EC50 (L132) was 4.3 µg/mL (≈ 7.89 µM). It also gave an EC50 (PA-1) of 5.3 µg/mL (≈ 9.73 µM), an EC50 (DU-145) of 2.4 µg/mL (≈ 4.41 µM) and an EC50 (MOLT-4) of 3.4 µg/mL (≈ 6.24 µM). For the same compound, the EC50 (CCRF-CEM) was 3.1 µg/mL (≈ 5.69 µM), the EC50 (BRISTOL8) was 3.4 µg/mL (≈ 6.24 µM) and the EC50 (U-937) was 2.4 µg/mL (≈ 4.41 µM).
